Like-named read-outs stand apart in the source and are kept apart here.
Columns and labels:
grass [1] = assay: Example 1 field test of iron chelates, grass damage; assay type: in vivo; conditions: field, sprayed once at 100 ml/m^2, 5 days after spraying
Description: (§1) The following non-limiting examples serve to further describe the invention. Unless otherwise specified, all of the iron solutions were made using the same molar concentration of iron ion as chelating agent. All of the outside tests were done on areas of mixed grass and dandelions that were at least 2 months old. For the greenhouse tests, dandelions were grown in a commercial greenhouse mix, using supplemental lighting and heating. Each plant was grown in a 2¼ inch pot to a minimum diameter of 20 cm. All of the solutions were sprayed onto the plants at a rate of 100 ml/m^2. The ferrous sulfate formulations that were used in examples 1, 2, 8 and 9 contained 1% iron (180 mM), 18 mM EDTA, 1% citric acid and 0.5% urea. In all of the examples, the amount of iron is identified in brackets as the percent iron on a weight basis.
(§2) All plant damage was assessed using a qualitative rating scale from 0 to 9.
(§3) All of the iron chelates were sprayed once at 0.2% Fe^+3 (35.8 mM), at a volume of 100 ml/m^2 onto 0.5 m^2 areas of mixed grass and dandelions. The spraying of the test was followed by 2 days of rain-free weather. Observations were made 5 days after spraying.

dandelions [2] = assay: Example 1 field test of iron chelates, dandelion damage; assay type: in vivo, Taraxacum officinale; conditions: sprayed once at 100 ml/m^2, 5 days after spraying
Description: as §1, §2, §3

grass [3] = assay: Example 2 field test of FeEDDS and FeHEDTA at pH 3 and 7, grass; assay type: in vivo; conditions: solution pH 2.6-3.0; field, 0.1 L/m^2, 4 days after spraying
Description: as §1, §2
(§4) The FeEDDS and FeHEDTA solutions contained 0.2% Fe^+3 (35.8 mM). The ferrous sulfate contained 1% Fe^+2 (179.1 mM). The solutions were sprayed at a rate of 0.1 L/m^2 onto 2 plots of 0.5 m^2 of mixed grass and dandelions. Observations were made 4 days after spraying.

dandelions [4] = assay: Example 2 field test of FeEDDS and FeHEDTA at pH 3 and 7, dandelion; assay type: in vivo, Taraxacum officinale; conditions: solution pH 2.6-3.0, 0.1 L/m^2, 4 days after spraying
Description: as §1, §2, §4

turf grasses = conditions: for Plant Death (%) Grass: 3 days after second spray; for Plant Damage (0 to 9) Grass: 3 days after second spray (re-sprayed after 9 days)
Description: as §1, §2
(§5) This test investigated the effect of 10% chelation and pH on potted grass and dandelions. All of the solutions contained 10% ferrous sulfate heptahydrate, resulting in a Fe^+2 concentration of 2% (358.1 mM). EDTA and EDDS were added at 1/10th of the iron molar concentration (35.8 mM). MH was added 1%. The dandelions and turf grasses were sow in separate pots 3 weeks prior to the start of the test.
(§6) The plants were re-sprayed after 9 days.

dandelions [5] = assay: Example 3 FeSO4, EDTA, EDDS and MH combinations on potted dandelions; assay type: in vivo, Taraxacum officinale; conditions: for Plant Death (%) Dandelion: 3 days after second spray; for Plant Damage (0 to 9) Dandelion: 3 days after second spray (re-sprayed after 9 days)
Description: as §1, §2, §5, §6

dandelions [6] = assay: Example 7 potassium nonanoate with FeHEDTA, greenhouse dandelions; assay type: in vivo, Taraxacum officinale; conditions: for Dead Plants (#/10): 8 + 5 days after spraying
Description: as §1, §2
This test compared the damaged caused by combinations of fatty acid and FeHEDTA. FeHEDTA was used at a concentration to 35.8 mM. The treatment with 0.1% Fe contained twice the molar amount of chelating agent as iron. The treatment with 0.2% iron contained the same molar amount of chelating agent as iron Potassium nonanoate (KC9) was used at 0.84%. The plants were re-sprayed 8 days after the first spray.

[7] = system: daisy plants (Bellis perennis BELPE); assay: Example 8 field daisy test of iron solutions; assay type: in vivo; conditions: 0.5 L/m^2, 6 days after spraying
Description: as §1

grass [8] = assay: Example 9 lawn restoration, grass coverage and damage; assay type: in vivo; conditions: after 18 days, sprayed twice
Description: (§7) Na4EDTA was added to the ferrous sulfate solution at 1.5% (36 mM). The molar level of EDTA is 1/10 that of the iron ions. […] The urea is added as a nitrogen fertilizer source to encourage the growth of the grasses.

[9] = system: dandelions (Taraxacum officinale); assay: Example 9 lawn restoration, dandelion coverage; assay type: in vivo
Description: as §7

dock (Rumex crispus) = assay: Example 9 lawn restoration, dock coverage; assay type: in vivo; conditions: after 18 days, sprayed twice
Description: as §7

O=S(=O)([O-])[O-].[Fe+2] [FeSO4, ferrous sulfate]
Grass Damage (0 to 9) (grass [1]): 7 | Dandelion Damage (0 to 9) (dandelions [2]): 6.3 0 to 9 | Grass Damage (0 to 9) (grass [3]): 7.0 0 to 9 | Dandelion Damage (0 to 9) (dandelions [4]): 7.0 0 to 9 | Plant Death (%) Grass (turf grasses; pH 3): 0% | Plant Damage (0 to 9) Grass (turf grasses; pH 3): 4 | Plant Death (%) Grass (turf grasses; pH 6): 0% | Plant Damage (0 to 9) Grass (turf grasses; pH 6): 0 | Plant Death (%) Dandelion (dandelions [5]; pH 3): 76% | Plant Damage (0 to 9) Dandelion (dandelions [5]; pH 3): 8.2 0 to 9 | Plant Death (%) Dandelion (dandelions [5]; pH 6): 17% | Plant Damage (0 to 9) Dandelion (dandelions [5]; pH 6): 6.0 0 to 9 | Plant Damage (0 to 9) (dandelions [6]; 8 + 5 days after spraying (re-sprayed after 8 days), listed as FeSO4 (0.2% Fe^+2)): 0.2 0 to 9 | Plant Damage (0 to 9) (dandelions [6]; 8 + 5 days after spraying (re-sprayed after 8 days), listed as FeSO4 (1% Fe^+2)): 7.2 0 to 9 | Plant Damage (0 to 9) (dandelions [6]; 8 + 5 days after spraying (re-sprayed after 8 days), listed as FeSO4 (2% Fe^+2)): 8.4 0 to 9 | Dead Plants (#/10) (dandelions [6]; listed as FeSO4 (0.2% Fe^+2)): 0 #/10 | Dead Plants (#/10) (dandelions [6]; listed as FeSO4 (1% Fe^+2)): 5 #/10 | Dead Plants (#/10) (dandelions [6]; listed as FeSO4 (2% Fe^+2)): 8 #/10 | Plant Damage (0 to 9) (dandelions [6]; 7 days after spraying, listed as FeSO4 (0.2% Fe^+2)): 0.8 0 to 9 | Plant Damage (0 to 9) (dandelions [6]; 7 days after spraying, listed as FeSO4 (1% Fe^+2)): 4.4 0 to 9 | Plant Damage (0 to 9) (dandelions [6]; 7 days after spraying, listed as FeSO4 (2% Fe^+2)): 6.2 0 to 9 | Daisy Mortality (%) [7]: 6% | Grass Damage (0 to 9) (grass [8]): 1 | Plot Area Covered (%) By: Grass (grass [8]): 20% | effect on dandelion (and dock) in the plots, in words ([9]; Example 9, text): did not appear to reduce the area covered by dandelions | Plot Area Covered (%) By: Dandelion ([9]; after 18 days, sprayed twice): 65% | Plot Area Covered (%) By: Dock (dock (Rumex crispus)): 14%

Source: patent publication US20100273656A1, “COMPOSITION AND METHOD FOR SELECTIVE HERBICIDE” (priority 2002, published 2010)
